Laboratory results as given in patent US20230151432A1, “KIF18A INHIBITORS FOR TREATMENT OF NEOPLASTIC DISEASES” (AMGEN INC., priority 2020, published 2023).

Key:
[1] = target: T1, Recombinant human KIF18A (1-467 His-tagged) protein (Homo sapiens, UniProt Q8NI77); assay: KIF18A Enzyme Assay (microtubule-stimulated ATPase activity, ADP-Glo); type: biochemical; settings: 30 nM KIF18A, 75 μM ATP
T1 construct: Recombinant human KIF18A (1-467 His-tagged) protein; His; made in house
Method: KIF18A Enzyme Assay: Microtubule-stimulated ATPase activity assay was used to measure KIF18A enzyme activity after treatment with compound. Compounds were 2-fold serially diluted in DMSO (Sigma Inc) over 22-point concentration range. […] The assay measures ADP formed from the ATPase reaction.
Concentration-response curve-fitting and IC50 determination was performed using Genedata Screener Software (Standard 15.0.1, Genedata Inc) with a four-parameter logistic regression fit model.

[2] = tested on: human mammary epithelial cells (HMEC); assay: BrdU incorporation assay in normal cells; type: cell-based; settings: 48 hours
Method: (§1) The effect KIF18A inhibitor treatment has on proliferation of normal somatic cells (e.g., not neoplastic cells) was tested by assaying proliferation of human bone marrow mononuclear cells (HBMNCs), primary human foreskin fibroblast cells (hFSF) and human mammary epithelial cells via a 5-bromo-2′-deoxyuridine (BrdU) incorporation assay in which BrdU, an analog of the nucleoside thymidine, is used to identify proliferating cells (Payton et. al., Molecular Cancer Therapeutics, 17(12):2575-85 (2018)). Cells were analyzed on BD LSRFortessa flow cytometer using BD FACSDiva software (BD Biosciences), and post-acquisition data analysis was performed using FSC-Express software (De Novo). The percentage of BrdU positive gated events on the stacked DNA content histograms were reported.

[3] = tested on: human foreskin fibroblast (hFSF) cells; assay: BrdU incorporation assay in normal cells; type: cell-based; settings: 48 hours
Method: as §1

OVCAR-3 HGSOC cells = assay: Time course Western blot of cell cycle and apoptosis proteins; type: cell-based, human; settings: 0.5 μM; release from double thymidine block, 4-24 hours
Method: OVCAR-3 HGSOC cells were seeded at a density of 1.4 million cells into 100 mm tissue culture plates in 10 mL of complete growth media. The next day, complete growth media containing 2 mM thymidine was added to the cells and incubated for 16 hours. Cells were washed thrice in 1×PBS before adding complete growth media for 8 hours, followed by and second 2 mM thymidine block for 16 hours. The double thymidine block arrested cells in G1/S phase of the cell cycle. Cells were release from G1/S block by first washing thrice in 1×PBS before adding complete growth media with DMSO or KIF18A inhibitor (Compound C11 at 0.5 μM). Cell lysates were prepared at multiple time points (4, 8, 10, 12, 14, and 24 hours). As controls, asynchronous growing OVCAR-3 cells were treated DMSO or KIF18A inhibitor (Compound C11 at 0.5 μM) and lysates were prepared at 24 hours. Primary antibodies included mouse anti-cleaved-PARP (cl-PARP) (51-900017, BD Pharmingen, 1:500), mouse anti-cyclin B1 (554179, BD Pharmingen, 1:500), rabbit anti-Mcl-1 (5453, Cell Signaling, 1:500), mouse anti-Cyclin E1 (MS-870-P, HE12, NeoMarkers, 1:2000), mouse anti-BubR1 (612503, BD Pharmingen, 1:5000), and rabbit anti-KIF18A (HPA039484, Simga, 1:2000), and mouse anti-β-actin (A5441, Simga, 1:5000).

[4] = tested on: p-Histone H3 in OVCAR-3 HGSOC tumor xenografts; assay: Tumor pharmacodynamic p-Histone H3 MSD assay; type: in vivo, mouse; settings: 3, 10, 30, 100 mg/kg; tumor collected 24 hours post-treatment
Method: Female athymic nude mice were injected with 5×10^6 OVCAR-3 cells in 0.1 mL subcutaneously in the right flank. After tumors were established (average tumor volume of 450 to 750 mm^3), animals were randomized into 5 treatment groups (vehicle alone, KIF18A inhibitor at 3, 10, 30, or 100 mg/kg) with 3 animals per group. Tumor and blood plasma were collected 24 hours post-treatment for pharmacokinetic analysis and tumor for pharmacodynamic analysis. Preparations of tumor protein lysates from snap frozen, pulverized, and lysed and processed using EpiQuik Total Histone Extraction Kit (OP-0006 Epigentek, Farmingdale, N.Y.) protocol. […] Lysates normalized for total protein per well were loaded onto Meso Scale Discovery (MSD) electrochemiluminescent immunoassay plates at 30 μg/well in lysis buffer a processed of pHH3 MSD analysis according to the manufacturer's protocol for the single-plex MSD assays using phospho-Histone H3 (serine-10) antibody (pHH3) and analyzed on a Sector Imager S16000 luminescence detection reader (MSD, Gaithersburg, Md.). Lysates were normalized for total protein and pHH3 fold induction represents the group average raw MSD value divided by the average raw MSD value of the vehicle treated group. […] The fold induction in pHH3 is noted for each KIF18A inhibitor treatment group relative to mean baseline pHH3 signal for vehicle group. […]

[5] = tested on: panel of cancer cell lines including breast cancer cell lines, ovary cancer cell lines, and a prostate cancer cell line; assay: 4-day image-based nuclear count assay (NCA), cancer cell line panel; set-up: species or system human
Method: Eg5 motor inhibitor (Ispinesib) was used as a cytotoxic control. […] Cancer cell lines were seeded in a Corning 96-well Flat Clear Bottom Black Polystyrene plate (Corning, N.Y.) in 100 μL of appropriate complete media at the appropriate density and grown for 24 hours. In one set of experiments, in preparation for cell treatment, a 2× concentration of one of: […] The compound was added to the cells with a final volume of 200 μL in complete media containing 0.5% DMSO. After 4 days (96 hours) or 6 days (144 hours) of treatment, the cells were fixed by removing 100 μL of complete media from each well and replacing it with 100 μL of 2×formaldehyde (final 4%) and incubating the plates for 15 minutes at room temperature. After fixation, the cells were permeabilized and stained in 200 μL Wash Buffer (1% BSA, 0.2% Triton X-100, 1×PBS) containing 2 μg/mL Hoechst 33342 DNA dye. The plates were sealed and incubated for 1 hour at room temperature in the dark. Cells were stored at 4° C. in the dark until data acquisition. Imaging data was acquired on Cellomics ArrayScan VTI HCS Reader (SN03090745F, ThermoFisher Scientific) using the Target Activation V4 Assay protocol (Ve 6.6.0 (Build 8153) with a 10×objective, collected 16-fields per well). […] A Mean Count EC50 value (±SD) across all sensitive cell lines was determined for each test agent.

T1 sequence (Q8NI77 1-467): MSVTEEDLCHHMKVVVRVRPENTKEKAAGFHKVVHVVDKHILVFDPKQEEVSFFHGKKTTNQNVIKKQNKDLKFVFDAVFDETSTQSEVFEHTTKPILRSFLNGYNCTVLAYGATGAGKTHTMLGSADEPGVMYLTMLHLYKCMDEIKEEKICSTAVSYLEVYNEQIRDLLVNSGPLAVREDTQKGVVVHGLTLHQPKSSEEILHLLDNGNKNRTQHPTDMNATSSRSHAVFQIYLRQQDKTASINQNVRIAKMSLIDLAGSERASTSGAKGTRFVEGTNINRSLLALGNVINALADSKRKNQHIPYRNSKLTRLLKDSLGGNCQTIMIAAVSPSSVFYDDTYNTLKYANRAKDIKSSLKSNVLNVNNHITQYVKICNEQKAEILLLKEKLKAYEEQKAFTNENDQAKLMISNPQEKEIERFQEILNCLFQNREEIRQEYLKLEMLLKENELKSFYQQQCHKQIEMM
T1 sequence (P02550 whole entry partner): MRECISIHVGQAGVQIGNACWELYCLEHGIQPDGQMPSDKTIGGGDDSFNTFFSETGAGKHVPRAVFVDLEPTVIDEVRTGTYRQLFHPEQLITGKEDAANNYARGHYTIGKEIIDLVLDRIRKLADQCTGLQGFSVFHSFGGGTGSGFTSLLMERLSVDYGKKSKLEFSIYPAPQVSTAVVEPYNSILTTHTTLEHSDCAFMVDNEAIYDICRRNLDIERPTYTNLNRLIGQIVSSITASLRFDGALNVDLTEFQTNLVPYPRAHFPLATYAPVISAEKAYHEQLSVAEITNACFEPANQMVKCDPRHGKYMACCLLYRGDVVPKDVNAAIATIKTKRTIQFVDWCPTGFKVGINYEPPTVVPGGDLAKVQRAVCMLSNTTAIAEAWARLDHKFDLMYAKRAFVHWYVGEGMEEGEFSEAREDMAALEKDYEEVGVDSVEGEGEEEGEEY
T1 sequence (P02554 whole entry partner): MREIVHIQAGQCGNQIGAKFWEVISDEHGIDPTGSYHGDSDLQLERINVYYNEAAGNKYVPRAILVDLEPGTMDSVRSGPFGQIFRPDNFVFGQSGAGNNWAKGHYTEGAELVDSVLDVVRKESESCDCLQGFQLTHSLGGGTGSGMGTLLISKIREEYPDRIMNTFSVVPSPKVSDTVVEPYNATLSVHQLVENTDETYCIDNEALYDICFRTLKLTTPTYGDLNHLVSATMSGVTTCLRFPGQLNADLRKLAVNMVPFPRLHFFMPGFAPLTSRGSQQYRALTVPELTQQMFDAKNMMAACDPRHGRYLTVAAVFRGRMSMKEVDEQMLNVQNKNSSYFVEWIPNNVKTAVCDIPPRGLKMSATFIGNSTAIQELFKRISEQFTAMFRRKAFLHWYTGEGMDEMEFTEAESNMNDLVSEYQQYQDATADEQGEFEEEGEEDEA

## CC(C)(CO)Nc1ccc(C(=O)Nc2cccc(S(=O)(=O)C3CCCC3)c2)c(N2CCC3(CC2)CC3)n1 [Compound C11, N-(3-(cyclopentylsulfonyl)phenyl)-6-((1-hydroxy-2-methylpropan-2-yl)amino)-2-(6-azaspiro[2.5]octan-6-yl)nicotinamide]
[1]
  IC50: 0.041 µM
[2]
  BrdU incorporation relative to DMSO treated cells: not impacted at concentrations <10 μM
[3]
  BrdU incorporation relative to DMSO treated cells: not impacted at concentrations <10 μM
OVCAR-3 HGSOC cells
  KIF18A and BubR1 protein levels: increase in KIF18A and BubR1 protein levels
  cyclin B1, cl-PARP, Mcl-1 and cyclin E1 protein levels: increase in cyclin B1 and cl-PARP protein levels and a decrease in Mcl-1 and cyclin E1 levels

## Cc1cc(NC(=O)c2ccc(NS(=O)(=O)CCO)cc2N2CCC3(CC2)CC3)nc(N2CCC(F)(F)CC2)n1 [Compound C14, N-(2-(4,4-Difluoropiperidin-1-yl)-6-methylpyrimidin-4-yl)-4-((2-hydroxyethyl)sulfonamido)-2-(6-azaspiro[2.5]octan-6-yl)benzamide]
[4]
  p-Histone H3 mitotic marker levels in tumor: dose-dependent increase
[5]; Homo sapiens, 96 h, mean across the seven sensitive (TP53 mutant) of twelve cell lines, SD ±0.008
  EC50: 0.0563 µM
[5]; five Rb-proficient lines: CAL-51, ZR-75-1, MCF-7, OVCAR-5 (TP53 WT), MDA-MB-453 (TP53 NULL)
  sensitivity in nuclear count assay: insensitive (if the Span did not exceed >50%, the cell line was considered insensitive)
